Data as given in ChEMBL document CHEMBL5113385, “Natural products and synthetic analogues against HIV: A perspective to develop new potential anti-HIV drugs” (Eur J Med Chem, 2022).

How the values were obtained:
[1] = Selectivity index, ratio of CC50 for human C8166 cells to EC50 for HIV IIIB infected in human C8166 cells; format: toxicity, cell-based; conditions: C8166 cells (uninfected, and infected with HIV IIIB), read-out: Ratio CC50/EC50
[2] = system: Human immunodeficiency virus 1; test: Antiviral activity against wild-type HIV-1 IIIB infected in human C8166 cells assessed as reduction in virus-induced cytopathic effect incubated for 3 days by MTT assay; format: functional, organism-based; conditions: Human immunodeficiency virus 1, IIIB, C8166, 72 h
[3] = system: Human immunodeficiency virus 1; test: Antiviral activity against HIV-1 NL4-3 infected in human TZM-bl cells assessed as reduction in virus-induced cytopathic effect incubated for 2 days by Bright Glo assay; format: functional, organism-based; conditions: Human immunodeficiency virus 1, NL4-3, TZM-bl, 48 h
[4] = Selectivity index, ratio of CC50 for human MT2 cells to EC50 for HIV-1 IIIB infected in human MT2 cells; format: toxicity, cell-based; conditions: MT2 cells (uninfected, and infected with HIV-1 IIIB), read-out: Ratio CC50/EC50
[5] = system: Human immunodeficiency virus 1; test: Antiviral activity against HIV-1 IIIB infected in human MT2 cells assessed as reduction in viral replication; format: functional, organism-based; conditions: Human immunodeficiency virus 1, IIIB
[6] = Inhibition of HIV-1 gp41 six-helix bundle formation incubated with N36 for 30 mins followed by incubation with C34 peptide for 30 mins by sandwich ELISA; format: functional, Human immunodeficiency virus 1
[7] = system: Human immunodeficiency virus 1; test: Antiviral activity against HIV-1 IIIB infected in human MT4 cells assessed as reduction in virus-induced cytopathic effect incubated for 5 days by MTT assay; format: functional, organism-based; conditions: Human immunodeficiency virus 1, IIIB, MT4, 120 h
[8] = system: MT4; test: Cytotoxicity against human MT4 cells assessed as reduction in cell viability incubated for 5 days by MTT assay; format: functional; conditions: MT4, 120 h, time 5 day
[9] = Selectivity index, ratio of CC50 for human MT4 cells to EC50 for HIV-1 IIIB infected in human MT4 cells; format: toxicity, cell-based; conditions: MT4 cells (uninfected, and infected with HIV-1 IIIB), read-out: Ratio CC50/EC50
[10] = system: Human immunodeficiency virus 1; test: Antiviral activity against HIV-1 E138K mutant infected in human MT4 cells assessed as reduction in viral replication incubated for 5 days by MTT assay; format: functional, organism-based; conditions: Human immunodeficiency virus 1, E138K mutant, MT4, 120 h

In the case of `CCc1c(CC2CCCCC2)nc(SCc2cc(-c3ccc(O)cc3)[nH]n2)[nH]c1=O`, the selectivity ratio [1] is reported as 25.5 and the IC50 [2] is reported as 0.0038 µM.

With `COc1ccc(N(C)C(=O)[C@H](Cc2cc(F)cc(F)c2)NC(=O)c2cccc(-c3cn(Cc4ccc([N+](=O)[O-])cc4)nn3)c2)cc1` the IC50 [3] was 2.13 µM.

In the case of `Cc1cccc2cc(/C=C3\NC(=O)N(Cc4ccccc4)C3=O)c(Cl)nc12`, the selectivity ratio [4] is reported as 117 and the IC50 [5] is reported as 0.148 µM.

`Cc1cc(/C=C2\SC(=S)N(Cc3ccccc3C(F)(F)F)C2=O)c(C)n1-c1ccc(O)c(C(=O)O)c1` gave an IC50 [6] of 23.1 µM.

Compound `N#Cc1ccc(Nc2nccc(/C(=N\O)c3ccc(-c4ccc(F)cc4)cc3F)n2)cc1` has an IC50 [7] of 12.1 µM, a CC50 [8] of over 292 µM and a selectivity ratio [9] of over 24100. It also gave an IC50 [10] of 0.027 µM.
